Target: T1, human Orexin 1 receptor (Homo sapiens, UniProt O43613)
T1 construct: stably expressing the full-length human Orexin 1 receptor and the aequorin photoprotein; expressed in transfected cells; host or cells: CHO-K1 (CHO-K1/hOx1), co-expressing aequorin
T1 sequence (O43613 1-425): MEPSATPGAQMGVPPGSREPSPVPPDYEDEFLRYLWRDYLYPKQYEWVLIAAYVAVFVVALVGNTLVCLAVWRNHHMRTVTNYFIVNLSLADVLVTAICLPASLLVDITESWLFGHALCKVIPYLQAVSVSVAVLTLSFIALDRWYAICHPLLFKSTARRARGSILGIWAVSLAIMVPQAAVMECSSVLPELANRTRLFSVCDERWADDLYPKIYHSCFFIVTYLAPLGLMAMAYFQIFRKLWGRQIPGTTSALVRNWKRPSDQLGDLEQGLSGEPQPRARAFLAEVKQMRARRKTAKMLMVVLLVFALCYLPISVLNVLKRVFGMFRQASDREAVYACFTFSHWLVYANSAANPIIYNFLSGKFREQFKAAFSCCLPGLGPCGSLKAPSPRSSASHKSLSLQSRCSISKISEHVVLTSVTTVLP
Assay: Assay A: OX1R IP1 (in vitro OX1R potency)
Type: cell-based
Conditions: for Kb: 50 nM Orexin A concentration
Excerpt: Activation of the orexin receptors expressed in cell lines results in an increase in intracellular IP3 concentration. IP1, a downstream metabolite of IP3, accumulates in cells following receptor activation and is stable in the presence of LiCl. Using Homogeneous Time-Resolved Fluorescence technology with Lumi4-Tb cryptate (commercially available from Cisbio Bioassay.) and a suitable fluorescence plate reader. […] This technique is used to characterize pharmacological modification of the orexin receptors.
A. In Vitro Testing of OX1R Potency: OX1R IP1
IP1 measurements are performed in CHO-K1 cells stably expressing the full-length human Orexin 1 receptor and the aequorin photoprotein. Cells are cultivated in Ham's nutrient mixture F12 medium with 10% fetal calf serum, in a 37° C., 95% humidity and 5% CO2 incubator. The CHO-K1/hOx1 cell mass is expanded to larger cell numbers. The cells are obtained as frozen cells in cryo-vials and stored until use at −150° C. […] In preparation for the assay, 24 hours before the assay, the cells are thawed at 37° C. and immediately diluted with cell culture medium. After centrifugation, the cell pellet is re-suspended in medium and then distributed into the assay plates with a density of 10000 cells/25 μL per well. The plates are incubated for one hour at room temperature to reduce edge effects before they are incubated for 24 hours at 37° C./5% CO2. Compounds are prepared by an 8-point serial dilution in DMSO and a final dilution step into assay buffer (HBSS with 20 mM HEPES, 0.1% BSA and 50 mM LiCl, pH 7.4) to ensure a final DMSO concentration of 1% in the assay.
On the day of the assay, cells in the plate are washed twice with 60 μL assay buffer (20 μL buffer remained in the wells after washing), followed by adding 5 μL per well of compounds diluted in assay buffer. After 15 minutes of incubation at room temperature 5 μL per well of Orexin A peptide (final concentration: 0.5 nM, and/or 50 nM) dissolved in assay buffer is added to the assay plate. The assay plate is incubated for 60 minutes at 37° C. Then 5 μl per well of Anti-IP1-Cryptate Tb solution and 5 μl per well of IP1-d2 dilution are added and the plate is incubated for a further 60 minutes light protected at room temperature. […] 8-point four parametric non-linear curve fitting and determination of IC50 values and Hill slopes is performed using a regular analysis software e.g. AssayExplorer (Accelrys).
Kb values from Assay A (OX1R) and Assay B (OX2R) can then provide a selectivity ratio which is independent of the agonist (Orexin A) concentration.

In the case of CCN(C(=O)c1ccccc1-n1nccn1)[C@@H](C)CNc1ncc(C(F)(F)F)cn1 [Example 1], the “OX2R Kb/OX1R Kb” value is reported as 404 and the Kb is reported as 0.048 nM.
CCN(C(=O)c1nc(C)ccc1-n1nccn1)[C@@H](C)CNc1ncc(C(F)(F)F)cn1 [Example 9] was tested, and the “OX2R Kb/OX1R Kb” value was 310, the Kb was 0.106 nM and the higher potency (versus Example 46 in WO2016/034882) was over 10 fold. For the same compound, the higher potency (versus Example 73 in WO2016/034882) was “approximately 3 fold”.
With CCN(C(=O)c1cnc(C)nc1-c1ccccc1)[C@@H](C)CNc1ncc(C(F)(F)F)cn1 [Example 17] the “OX2R Kb/OX1R Kb” value was 2500 and the Kb was 0.0216 nM.
In the case of CCN(C(=O)c1cccc(F)c1-n1nccn1)[C@@H](C)CNc1ncc(C(F)(F)F)cn1 [Example 18], the “OX2R Kb/OX1R Kb” value is reported as 352 and the Kb is reported as 0.0512 nM.
